Assays:
[1] = target: T1, X4E1a2 (E101S/K102R) (Xenopus laevis, UniProt P48597, E101S/K102R); test: fluorescence titration, XeIF4E1a mutant; format: binding; conditions: mutant (E101S/K102R) of XeIF4E1a
T1 construct: made in house; host or cells: E. coli Rosetta2(DE3)
Description: (§1) We tested the effect on cap-binding activity of these positions in the fluorescence assay with six mutated recombinant versions of Xenopus eIF4E1a (Fig. S4). The amino acids were introduced in XeIF4E1a sequentially in the order: E101S/K102R/S195A/M82S/T206L/T207S (numbering of the XeIF4E1a sequence is shifted backward by 4 amino acids relative to XeIF4E1b). […] The biggest contribution to the weaker cap binding of XeIF4E1a, in each case about 20%, resulted from changing Glu101 to Ser and Thr206 to Leu coupled with Thr207 to Ser, with the remaining mutations having only minor effects. […] Glu101 is a solvent-accessible amino acid and is proximal to Trp98 in the S3-S4 loop. […] Attenuation of the cap-binding affinity of XeIF4E1a resulting from mutating Thr206 and Thr207 is consistent with our results mentioned above showing significant influence of C-terminal loop residues on binding phosphate and the second nucleotide.
(§2) For human eIF4E1a and eIF4E1b and also for Xenopus eIF4E1a and its mutated forms, measurements were carried out using 0.1 μM protein in 50 mM Hepes/KOH (pH 7.2), 134.5 mM KCl, 0.5 mM EDTA and 1 mM DTT. For Xenopus eIF4E1b(ΔN27), the concentration was 0.2 μM and glycerol was added to the buffer to 10% (v/v) final concentration. […] The gradually increasing concentration of cap analogue quenches protein fluorescence without shifting the spectrum maximum, while at high concentrations, the fluorescence signal of free cap analogue dominates over the fluorescence from other solution components including free eIF4E and eIF4E in complex with cap (Fig. S2a). Fluorescence of measured samples was excited at 280 nm (2.5 nm bandwidth) and detected at 337 nm or 330 nm (4 nm bandwidth), thus reducing the signal originated from the free cap analogues. Measurements were carried out on a LS-55 spectrofluorometer (Perkin Elmer Co.) using freshly prepared proteins, and the fluorescence intensities were corrected for sample dilution and the inner filter effect.
(§3) Equilibrium association constants (Kas) were determined by fitting the theoretical dependence of fluorescence intensity on the total concentration of the cap analogue to the experimental data points, according to the equation described previously (see Ref. [22] and Fig. S2c). […] Along with Kas and the concentration of the active protein [P0^act], other parameters such as fL and ∆f = fPact − fPL are also gained from the fit, where fL represents the fluorescence efficiency of free cap analogue and ∆f represents the difference between the fluorescence efficiencies of the apo-protein and the complex (Fig. S2c).
(§4) The final Kas was calculated as a weighted average of 2–6 independent titrations with the weights taken as the reciprocal of the numerical standard deviation squared. Numerical, nonlinear least-squares regression analysis was performed using Origin 6.0 (Microcal Software Inc.). Obtained association constants were used to determine the Gibbs free energy according to the standard equation ΔG° = − RTlnKas.

[2] = target: T2, X4E1a1’ (K102R) (Xenopus laevis, UniProt P48597, K102R); test: fluorescence titration, XeIF4E1a mutant; format: binding; conditions: mutant (K102R) of XeIF4E1a
T2 construct: made in house; host or cells: E. coli Rosetta2(DE3)
T2 sequence (P48597 whole entry K102R): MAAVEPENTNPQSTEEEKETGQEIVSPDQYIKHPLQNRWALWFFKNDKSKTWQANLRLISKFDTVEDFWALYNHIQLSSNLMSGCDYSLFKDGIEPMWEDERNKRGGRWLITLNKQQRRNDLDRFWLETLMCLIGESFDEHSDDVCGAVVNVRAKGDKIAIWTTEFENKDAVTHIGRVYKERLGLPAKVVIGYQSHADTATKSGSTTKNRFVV
Description: as §1, §2, §3, §4

[3] = target: T3, X4E1a4 (E101S/K102R/S195A/M82S) (Xenopus laevis, UniProt P48597, E101S/K102R/M82S/S195A); test: fluorescence titration, XeIF4E1a mutant; format: binding; conditions: mutant (E101S/K102R/S195A/M82S) of XeIF4E1a
T3 construct: made in house; host or cells: E. coli Rosetta2(DE3)
T3 sequence (P48597 whole entry M82S/E101S/K102R/S195A): as the sequence (P48597 whole entry K102R) above, with M82S, E101S, S195A counted along it
Description: as §1, §2, §3, §4

[4] = target: T4, X4E1a6 (E101S/K102R/S195A/M82S/T206L/T207S) (Xenopus laevis, UniProt P48597, E101S/K102R/M82S/S195A/T206L/T207S); test: fluorescence titration, XeIF4E1a mutant; format: binding; conditions: mutant (E101S/K102R/S195A/M82S/T206L/T207S) of XeIF4E1a
T4 construct: made in house; host or cells: E. coli Rosetta2(DE3)
T4 sequence (P48597 whole entry M82S/E101S/K102R/S195A/T206L/T207S): as the sequence (P48597 whole entry K102R) above, with M82S, E101S, S195A, T206L, T207S counted along it
Description: as §1, §2, §3, §4

[5] = target: T5, X4E1a1 (E101S) (Xenopus laevis, UniProt P48597, E101S); test: fluorescence titration, XeIF4E1a mutant; format: binding; conditions: mutant (E101S) of XeIF4E1a
T5 construct: made in house; host or cells: E. coli Rosetta2(DE3)
T5 sequence (P48597 whole entry E101S): as the sequence (P48597 whole entry K102R) above, with E101S, R102K counted along it
Description: as §1, §2, §3, §4

[6] = target: T6, X4E1a3 (E101S/K102R/S195A) (Xenopus laevis, UniProt P48597, E101S/K102R/S195A); test: fluorescence titration, XeIF4E1a mutant; format: binding; conditions: mutant (E101S/K102R/S195A) of XeIF4E1a
T6 construct: made in house; host or cells: E. coli Rosetta2(DE3)
T6 sequence (P48597 whole entry E101S/K102R/S195A): as the sequence (P48597 whole entry K102R) above, with E101S, S195A counted along it
Description: as §1, §2, §3, §4

[7] = system: XeIF4E1bΔN27; test: time-synchronized fluorescence titration of cap analogue binding; design: species or system Xenopus laevis; conditions: for Ratio Kas (X4E1a) to Kas (X4E1bΔN27) / ΔΔG^o + glycerol XeIF4E1bΔN27 / Kas + glycerol XeIF4E1bΔN27: 10% glycerol; for ΔΔG^o + glycerol XeIF4E1bΔN27: change relative to m^7GTP; for Kas + glycerol XeIF4E1bΔN27: equilibrium association constant
Description: (§5) The time-synchronized fluorescence titration method, widely used to determine the affinity constants of cap–eIF4E complexes [[20,22–26]], measures the quenching of the intrinsic fluorescence of tryptophan residues due to cap binding (Fig. S2). Knowledge of the equilibrium association constant Kas enables the calculation of the free-energy changes involved in the interaction between eIF4E and ligand, according to the standard equation ΔG° = − RTlnKas.
(§6) For human eIF4E1a and eIF4E1b and also for Xenopus eIF4E1a and its mutated forms, measurements were carried out using 0.1 μM protein in 50 mM Hepes/KOH (pH 7.2), 134.5 mM KCl, 0.5 mM EDTA and 1 mM DTT. For Xenopus eIF4E1b(ΔN27), the concentration was 0.2 μM and glycerol was added to the buffer to 10% (v/v) final concentration. […] Fluorescence of measured samples was excited at 280 nm (2.5 nm bandwidth) and detected at 337 nm or 330 nm (4 nm bandwidth), thus reducing the signal originated from the free cap analogues. Measurements were carried out on a LS-55 spectrofluorometer (Perkin Elmer Co.) using freshly prepared proteins, and the fluorescence intensities were corrected for sample dilution and the inner filter effect.
(§7) Equilibrium association constants (Kas) were determined by fitting the theoretical dependence of fluorescence intensity on the total concentration of the cap analogue to the experimental data points, according to the equation described previously (see Ref. [22] and Fig. S2c).
as §4

[8] = target: T7, XeIF4E1a (Xenopus laevis, UniProt P48597); test: as above; conditions: for ΔΔG^o + glycerol XeIF4E1a / ΔΔG^o − glycerol XeIF4E1a: change relative to m^7GTP; for ΔΔG^o + glycerol XeIF4E1a / Kas + glycerol XeIF4E1a: 10% glycerol; for ΔΔG^o − glycerol XeIF4E1a: without glycerol; for Kas + glycerol XeIF4E1a / Kas − glycerol XeIF4E1a: equilibrium association constant; for Kas − glycerol XeIF4E1a: buffer without glycerol
T7 construct: made in house; host or cells: E. coli Rosetta2(DE3)
T7 sequence (P48597 whole entry): as the sequence (P48597 whole entry K102R) above, with R102K counted along it
Description: as §5, §6, §7, §4

[9] = system: heIF4E1b; test: as above; design: species or system human; conditions: without glycerol
Description: as §5, §6, §7, §4

[10] = system: XeIF4E1a; test: as above; design: species or system Xenopus laevis; conditions: without glycerol
Description: as §5, §6, §7, §4

[11] = target: T8, heIF4E1b (Homo sapiens, UniProt A6NMX2); test: as above; conditions: for ΔΔG^o − glycerol heIF4E1b: change relative to m^7GTP, without glycerol; for Kas − glycerol heIF4E1b: equilibrium association constant, buffer without glycerol
T8 construct: made in house; host or cells: E. coli Rosetta2(DE3)
T8 sequence (A6NMX2 1-242): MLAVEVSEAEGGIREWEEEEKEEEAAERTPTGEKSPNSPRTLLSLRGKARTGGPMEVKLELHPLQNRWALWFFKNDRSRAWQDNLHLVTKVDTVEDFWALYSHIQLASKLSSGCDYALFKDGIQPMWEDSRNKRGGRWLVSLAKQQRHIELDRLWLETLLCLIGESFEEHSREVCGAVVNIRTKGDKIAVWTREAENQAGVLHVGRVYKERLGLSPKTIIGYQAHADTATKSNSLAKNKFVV
Description: as §5, §6, §7, §4

[12] = target: T9, heIF4E1a (Homo sapiens, UniProt P06730); test: as above; conditions: for ΔΔG^o − glycerol heIF4E1a: change relative to m^7GTP, without glycerol; for Kas − glycerol heIF4E1a: equilibrium association constant, buffer without glycerol
T9 construct: made in house; host or cells: E. coli Rosetta2(DE3)
T9 sequence (P06730 whole entry): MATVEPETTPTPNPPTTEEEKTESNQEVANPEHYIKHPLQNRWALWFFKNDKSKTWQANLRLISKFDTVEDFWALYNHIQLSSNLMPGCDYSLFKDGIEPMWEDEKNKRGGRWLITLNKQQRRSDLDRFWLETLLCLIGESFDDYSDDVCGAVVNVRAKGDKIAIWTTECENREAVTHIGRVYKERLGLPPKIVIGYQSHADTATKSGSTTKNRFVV
Description: as §5, §6, §7, §4

T1 sequence (P48597 whole entry E101S/K102R): as the sequence (P48597 whole entry K102R) above, with E101S counted along it

Row | SMILES | Kas X4E1a2 [1] [µM⁻¹] | Kas X4E1a1’ [2] [µM⁻¹] | Kas X4E1a4 [3] [µM⁻¹] | Kas X4E1a6 [4] [µM⁻¹] | Kas X4E1a1 [5] [µM⁻¹] | Kas X4E1a3 [6] [µM⁻¹] | Ratio Kas (X4E1a) to Kas (X4E1bΔN27) [7] | ΔΔG^o + glycerol XeIF4E1bΔN27 [7] [kcal/mol] | Kas + glycerol XeIF4E1bΔN27 [7] [μM^− 1] | ΔΔG^o + glycerol XeIF4E1a [8] [kcal/mol] | ΔΔG^o − glycerol XeIF4E1a [8] [kcal/mol] | Kas + glycerol XeIF4E1a [8] [μM^− 1] | Kas − glycerol XeIF4E1a [8] [μM^− 1] | Ratio Kas (h4E1a) to Kas (h4E1b) [9] | Ratio Kas (h4E1a) to Kas (X4E1a) [10] | ΔΔG^o − glycerol heIF4E1b [11] [kcal/mol] | Kas − glycerol heIF4E1b [11] [μM^− 1] | ΔΔG^o − glycerol heIF4E1a [12] [kcal/mol] | Kas − glycerol heIF4E1a [12] [μM^− 1] | also measured
1 | CN(C)c1nc2c(c(=O)[nH]1)[n+](C)cn2[C@@H]1O[C@H](COP(=O)(O)OP(=O)(O)OP(=O)(O)O)[C@@H](O)[C@H]1O [m^2,2,7GTP] | 0.306 ± 0.046 | 0.268 ± 0.012 | 0.317 ± 0.054 | 0.185 ± 0.012 | 0.350 ± 0.015 | 0.193 ± 0.019 | 0.70 | 2.00 ± 0.11 | 0.253 ± 0.046 | 2.844 ± 0.042 | 2.897 ± 0.051 | 0.176 ± 0.011 | 0.295 ± 0.021 | 1.33 | 1.22 | 2.557 ± 0.041 | 0.272 ± 0.009 | 3.052 ± 0.045 | 0.362 ± 0.008 | –
2 | Cn1c[n+]([C@@H]2O[C@H](COP(=O)(O)OP(=O)(O)OP(=O)(O)OP(=O)(O)O)[C@@H](O)[C@H]2O)c2nc(N)[nH]c(=O)c21 [m^7Gp4] | 202.5 ± 6.7 | 232.5 ± 8.3 | 206 ± 12 | 143 ± 8 | 218 ± 39 | 170 ± 24 | 3.51 | – | 43.0 ± 2.0 | – | – | 151.1 ± 8.6 | 268 ± 10 | 4.68 | 1.57 | – | 89.6 ± 4.0 | – | 419 ± 23 | –
3 | CCn1c[n+]([C@@H]2O[C@H](COP(=O)(O)OP(=O)(O)OP(=O)(O)O)[C@@H](O)[C@H]2O)c2nc(N)[nH]c(=O)c21 [et^7GTP] | 7.132 ± 0.088 | 7.38 ± 0.18 | 8.21 ± 0.51 | 4.41 ± 0.16 | 7.14 ± 0.63 | 6.23 ± 0.17 | 2.20 | 0.722 ± 0.059 | 2.26 ± 0.20 | 0.900 ± 0.035 | 0.984 ± 0.050 | 4.97 ± 0.22 | 7.89 ± 0.57 | 1.78 | 1.65 | 0.639 ± 0.045 | 7.34 ± 0.34 | 0.965 ± 0.045 | 13.04 ± 0.31 | fold decrease of association constant relative to m^7GTP ([7]; N^7-methyl replaced by ethyl): 3 fold; fold decrease of association constant relative to m^7GTP ([8]; N^7-methyl replaced by ethyl): approximately 5 fold; fold decrease of association constant relative to m^7GTP ([11]; N^7-methyl replaced by ethyl): 3 fold; fold decrease of association constant relative to m^7GTP ([12]; N^7-methyl replaced by ethyl): approximately 5 fold

From article PMC4306533, “Distinct Features of Cap Binding by eIF4E1b Proteins” (Journal of Molecular Biology, 2015)
